Results published in PMC11583123, “Linker Chemistry and Connectivity Fine-Tune the Immune Response and Kinetic Solubility of Conjugated NOD2/TLR7 Agonists” (Bioconjugate Chemistry, 2024).
Blank lines part the entries; values can stand above or below the molecule they belong to.

Legend:
[1] = Kinetic solubility in PBS (UHPLC, method of Hoelke et al.); assay type: physicochemical; details: for solubility kinetic: PBS, aqueous with cosolvent or surfactant or cyclodextrin, kinetic from dmso stock, 5% DMSO
Protocol: Second, the kinetic solubility of all individual building blocks (compounds 4-7) and conjugates was determined (results are listed in Table 1) in order to highlight how fine-tuning of linker traits can impact this physicochemical property. Kinetic solubility refers to the maximum solubility of a compound when it precipitates from a supersaturated solution, which is metastable and not in equilibrium; it was measured using the method described by Hoelke et al.[34] The length and composition of the linker as well as linkage site are important for activity and physicochemical characteristics of conjugates, which in turn affect their pharmacokinetic profiles. In general, the benzylic COOH was exploited exclusively as the linker attachment site in TLR7 agonist-featuring conjugates, while two potential linkage sites were considered in the structure of NOD2 agonist. […] In conjugates 22-24 and 29, the moieties were connected via the γ-COOH group of the NOD2 agonist. […] It has to be kept in mind that among the polyalkylethers, the structural requirements for aqueous solubility are poised toward the (−OCH2CH2−)n unit while (−OCH2CH2CH2−)n is not beneficial in this respect.[35] […]
suspension was filtered through a syringe filter (0.45 μm), diluted 2.25-fold with acetonitrile, and analyzed with UHPLC. The solubility was quantified with a five-point calibration curve from 500 to 0.8 μM generated by dilution of the original DMSO solution into a 1:1 mixture of acetonitrile and PBS. The content of DMSO in all solutions was fixed to 5% by adding the respective amounts of DMSO. The column used was Waters Acquity UPLC BEH C18 (1.7 μm, 2.1 × 50 mm). The eluent was a mixture of 0.1% TFA in water (A) and acetonitrile (B), with a gradient of (%B): 0−6 min, 5−95%; 6−8 min, 95%; 8−8.5 min, 95−5%. The column was thermostated at 40 °C.
3.1. Hek-Blue NOD2, TLR7 and TLR8 cells. […]
(BioTek Synergy microplate reader; Winooski, VT, USA). EC50 values were calculated using Prism

human NOD2 = target: T1, human NOD2 (Homo sapiens, UniProt Q9HC29); assay: HEK-Blue NOD2 NF-κB SEAP reporter assay; assay type: cell-based; details: HEK-Blue NOD2 cells
T1 construct: host or cells: HEK-Blue NOD2 (HEK293-derived)
T1 sequence (Q9HC29 whole entry): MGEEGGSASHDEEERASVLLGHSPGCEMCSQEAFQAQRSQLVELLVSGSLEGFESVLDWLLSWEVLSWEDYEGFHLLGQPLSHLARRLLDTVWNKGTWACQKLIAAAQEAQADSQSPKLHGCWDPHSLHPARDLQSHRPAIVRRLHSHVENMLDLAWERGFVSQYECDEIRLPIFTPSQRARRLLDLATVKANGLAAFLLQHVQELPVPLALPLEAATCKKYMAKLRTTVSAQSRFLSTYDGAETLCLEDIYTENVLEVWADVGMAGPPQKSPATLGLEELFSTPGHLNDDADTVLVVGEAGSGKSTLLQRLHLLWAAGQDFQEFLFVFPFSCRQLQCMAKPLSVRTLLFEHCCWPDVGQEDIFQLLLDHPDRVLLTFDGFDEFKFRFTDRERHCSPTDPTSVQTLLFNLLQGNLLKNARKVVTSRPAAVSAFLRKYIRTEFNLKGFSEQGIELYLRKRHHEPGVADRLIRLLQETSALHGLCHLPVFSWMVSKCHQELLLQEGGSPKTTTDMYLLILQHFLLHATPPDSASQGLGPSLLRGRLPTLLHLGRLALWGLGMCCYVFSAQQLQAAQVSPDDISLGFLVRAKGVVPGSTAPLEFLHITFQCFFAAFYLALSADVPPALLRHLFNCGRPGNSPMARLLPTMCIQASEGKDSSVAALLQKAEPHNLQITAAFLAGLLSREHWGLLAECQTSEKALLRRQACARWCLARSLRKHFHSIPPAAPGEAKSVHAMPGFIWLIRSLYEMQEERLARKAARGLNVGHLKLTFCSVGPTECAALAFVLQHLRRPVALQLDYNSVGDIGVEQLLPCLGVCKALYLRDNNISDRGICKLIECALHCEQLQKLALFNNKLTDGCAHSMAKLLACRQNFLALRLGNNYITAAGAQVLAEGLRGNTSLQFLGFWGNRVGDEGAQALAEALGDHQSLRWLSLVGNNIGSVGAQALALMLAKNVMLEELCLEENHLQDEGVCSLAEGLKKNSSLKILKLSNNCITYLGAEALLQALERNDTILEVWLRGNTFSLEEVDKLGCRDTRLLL
Source text: (§1) The building blocks and synthesized conjugates were initially assessed for their receptor-specific activities toward NOD2, TLR7 and TLR8 using the commercially available HEK-Blue NOD2, TLR7 and TLR8 reporter cell lines. These cell lines were derived from HEK293 cells by cotransfection of human NOD2/TLR7/TLR8 and an NF-κB-inducible secreted embryonic alkaline phosphatase (SEAP). Activation of NOD2/TLR7/TLR8, and subsequently of NF-κB, leads to the expression and secretion of SEAP, the levels of which can be quantified colorimetrically. […]
(§2) 3.1. Hek-Blue NOD2, TLR7 and TLR8 cells.
(§3) HEK-Blue NOD2, TLR7, and TLR8 cells (Invivogen, San Diego, CA, USA) were cultured according to the manufacturer instructions in Dulbecco’s modified Eagle’s medium (Sigma-Aldrich, St. Louis, MO, USA) supplemented with 10% heat-inactivated fetal bovine serum (Gibco), 2 mM L-glutamine (Sigma-Aldrich), 100 U/mL penicillin (Sigma-Aldrich), 100 µg/mL streptomycin (Sigma-Aldrich), and 100 µg/mL Normocin (Invivogen) for two passages. All subsequent passages of NOD2 and TLR8 cells were cultured in medium additionally supplemented with 100 µg/mL Zeocin and 30 µg/mL Blasticidin (Invivogen) and of TLR7 cells with 100 µg/mL Zeocin and 10 µg/mL Blasticidin. […]
(§4) The tested compounds were dissolved in DMSO and further diluted in culture medium to the desired final concentrations, such that the final DMSO concentration never exceeded 0.1%. […]
(§5) 3.4 NOD2/TLR7/TLR8 NF-kB reporter assay
(§6) HEK-Blue NOD2 cells (25,000 cells/well), TLR7 and TLR8 cells (40,000 cells/well) were seeded in 96-well plates in 100 µL HEK-Blue detection medium (Invivogen, San Diego, CA, USA) and treated with […]
(§7) corresponding vehicle (0.1% DMSO). After 18 h of incubation (37 °C, 5% CO2), secreted embryonic

human TLR7 = target: T2, human TLR7 (Homo sapiens, UniProt Q9NYK1); assay: HEK-Blue TLR7 NF-κB SEAP reporter assay; assay type: cell-based; details: for EC50 / TLR7 agonistic activity (in words): HEK-Blue TLR7 cells; for EC50: 18 h, eight concentrations (1 nM to 10 μM), mean ± SEM; for TLR7 agonistic activity (in words): up to 10 μM
T2 construct: host or cells: HEK-Blue TLR7 (HEK293-derived)
T2 sequence (Q9NYK1 27-1049): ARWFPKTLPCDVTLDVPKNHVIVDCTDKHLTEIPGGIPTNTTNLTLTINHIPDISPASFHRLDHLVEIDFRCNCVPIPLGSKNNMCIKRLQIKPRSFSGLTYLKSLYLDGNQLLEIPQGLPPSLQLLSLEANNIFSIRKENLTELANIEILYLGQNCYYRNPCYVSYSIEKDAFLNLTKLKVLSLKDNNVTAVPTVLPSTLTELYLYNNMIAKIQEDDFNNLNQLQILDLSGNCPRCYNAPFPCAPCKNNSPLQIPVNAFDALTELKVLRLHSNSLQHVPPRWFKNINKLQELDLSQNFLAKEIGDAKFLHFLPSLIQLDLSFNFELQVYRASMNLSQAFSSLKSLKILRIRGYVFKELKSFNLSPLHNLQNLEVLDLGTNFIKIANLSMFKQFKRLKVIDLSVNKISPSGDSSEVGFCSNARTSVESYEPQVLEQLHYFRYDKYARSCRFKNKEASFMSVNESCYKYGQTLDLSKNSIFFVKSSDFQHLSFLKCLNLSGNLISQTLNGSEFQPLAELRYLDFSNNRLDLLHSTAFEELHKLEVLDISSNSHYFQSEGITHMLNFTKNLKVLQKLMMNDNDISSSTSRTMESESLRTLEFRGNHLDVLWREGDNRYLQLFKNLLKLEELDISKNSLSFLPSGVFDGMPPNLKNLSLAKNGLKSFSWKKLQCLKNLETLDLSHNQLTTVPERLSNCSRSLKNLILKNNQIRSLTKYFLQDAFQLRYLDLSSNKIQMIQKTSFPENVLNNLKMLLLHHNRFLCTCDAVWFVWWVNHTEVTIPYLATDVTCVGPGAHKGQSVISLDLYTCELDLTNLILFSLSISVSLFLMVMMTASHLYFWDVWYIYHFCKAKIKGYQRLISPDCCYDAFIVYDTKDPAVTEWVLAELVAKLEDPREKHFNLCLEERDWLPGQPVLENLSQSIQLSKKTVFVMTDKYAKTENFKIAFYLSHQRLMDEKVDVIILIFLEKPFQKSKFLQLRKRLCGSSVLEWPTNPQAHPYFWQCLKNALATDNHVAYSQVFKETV
Source text: as §1, §2, §3, §4, §5, §6, §7

human TLR8 = target: T3, human TLR8 (Homo sapiens, UniProt Q9NR97); assay: HEK-Blue TLR8 NF-κB SEAP reporter assay; assay type: cell-based; details: HEK-Blue TLR8 cells, 18 h, eight concentrations (1 nM to 10 μM), mean ± SEM
T3 construct: host or cells: HEK-Blue TLR8 (HEK293-derived)
T3 sequence (Q9NR97 27-1041): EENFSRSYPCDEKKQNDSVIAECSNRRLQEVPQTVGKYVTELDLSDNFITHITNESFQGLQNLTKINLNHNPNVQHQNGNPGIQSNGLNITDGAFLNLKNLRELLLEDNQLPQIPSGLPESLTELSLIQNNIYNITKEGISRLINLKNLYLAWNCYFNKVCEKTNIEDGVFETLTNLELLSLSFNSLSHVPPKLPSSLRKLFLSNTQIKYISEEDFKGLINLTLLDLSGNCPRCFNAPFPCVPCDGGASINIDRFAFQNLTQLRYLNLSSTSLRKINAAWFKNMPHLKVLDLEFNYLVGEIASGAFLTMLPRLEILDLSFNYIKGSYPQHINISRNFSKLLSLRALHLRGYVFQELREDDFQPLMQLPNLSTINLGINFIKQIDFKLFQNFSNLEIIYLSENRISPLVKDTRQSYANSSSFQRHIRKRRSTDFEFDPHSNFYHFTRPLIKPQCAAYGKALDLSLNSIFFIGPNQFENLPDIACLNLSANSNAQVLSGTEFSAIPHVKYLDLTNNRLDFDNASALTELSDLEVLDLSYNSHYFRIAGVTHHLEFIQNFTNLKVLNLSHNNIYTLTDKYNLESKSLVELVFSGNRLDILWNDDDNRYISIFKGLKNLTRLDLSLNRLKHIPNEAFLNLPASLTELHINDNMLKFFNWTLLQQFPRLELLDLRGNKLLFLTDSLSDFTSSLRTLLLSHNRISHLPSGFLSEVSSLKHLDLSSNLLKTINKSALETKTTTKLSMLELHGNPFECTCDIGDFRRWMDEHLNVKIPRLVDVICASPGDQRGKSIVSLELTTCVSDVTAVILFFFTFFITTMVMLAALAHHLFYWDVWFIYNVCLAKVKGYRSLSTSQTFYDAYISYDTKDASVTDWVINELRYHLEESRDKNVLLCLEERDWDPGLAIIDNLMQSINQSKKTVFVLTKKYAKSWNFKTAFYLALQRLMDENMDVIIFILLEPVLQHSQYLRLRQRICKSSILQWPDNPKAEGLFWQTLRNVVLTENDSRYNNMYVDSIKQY
Source text: as §1, §2, §3, §4, §5, §6, §7

[2] = 18 h, eight concentrations (1 nM to 10 μM), mean ± SEM

Compound: CCOCc1nc2c(N)nc3ccccc3c2n1CC(C)(C)O [Resiquimod (6), Resiquimod, reference compound]
solubility kinetic [1]: 469 µM

Compound: CCCCOc1nc(N)c2nc(O)n(Cc3ccc(C(=O)NCCOCCOCCNC(=O)CC[C@@H](NC(=O)[C@@H](NC(=O)CNC(=O)/C=C/c4ccc(O)c(OC)c4)C(C)C)C(=O)OCC)cc3)c2n1 [compound 22]
solubility kinetic [1]: 85.4 µM | Boost in solubility over conjugate 2 ([1]; ratio of kinetic solubilities in PBS): ~25 fold | EC50 (human NOD2; [2]): > 10000 nM | EC50 (human TLR7): 419 nM | TLR7 agonistic activity (in words) (human TLR7): activated TLR7 in the midnanomolar range

Compound: CCCCOc1nc(N)c2nc(O)n(Cc3ccc(C(=O)NCCCOCCOCCOCCCNC(=O)CC[C@@H](NC(=O)[C@@H](NC(=O)CNC(=O)/C=C/c4ccc(O)c(OC)c4)C(C)C)C(=O)OCC)cc3)c2n1 [compound 23]
solubility kinetic [1]: 38.6 µM | EC50 (human NOD2; [2]): > 10000 nM | EC50 (human TLR7): 165 nM | TLR7 agonistic activity (in words) (human TLR7): activated TLR7 in the midnanomolar range | Enhancement of TLR7 activity over 22 and 29 (human TLR7; ratio of EC50 values): 2.5 fold

Compound: CCCCOc1nc(N)c2nc(O)n(Cc3ccc(C(=O)NCCCCCCNC(=O)CC[C@@H](NC(=O)[C@@H](NC(=O)CNC(=O)/C=C/c4ccc(O)c(OC)c4)C(C)C)C(=O)OCC)cc3)c2n1 [compound 24]
solubility kinetic [1]: 2.8 µM | EC50 (human NOD2): 6200 nM | EC50 (human NOD2; [2]): 6160 ± 1250 nM | EC50 (human TLR7): 238 nM | TLR7 agonistic activity (in words) (human TLR7): activated TLR7 in the midnanomolar range

Compound: CCCCOc1nc(N)c2nc(O)n(Cc3ccc(C(=O)NCCOCCOCCNC(=O)[C@@H](CCC(=O)OCC)NC(=O)[C@@H](NC(=O)CNC(=O)/C=C/c4ccc(O)c(OC)c4)C(C)C)cc3)c2n1 [compound 26]
solubility kinetic [1]: 9.2 µM | EC50 (human NOD2; [2]): > 10000 nM | EC50 (human TLR7): 247 nM | TLR7 agonistic activity (in words) (human TLR7): activated TLR7 in the midnanomolar range

Compound: CCCCOc1nc(N)c2nc(O)n(Cc3ccc(C(=O)NCCOCCOCCOCCn4cc(CNC(=O)CC[C@@H](NC(=O)[C@@H](NC(=O)CNC(=O)/C=C/c5ccc(O)c(OC)c5)C(C)C)C(=O)OCC)nn4)cc3)c2n1 [compound 29]
solubility kinetic [1]: 35.4 µM | EC50 (human NOD2; [2]): > 10000 nM | EC50 (human TLR7): 391 nM | TLR7 agonistic activity (in words) (human TLR7): activated TLR7 in the midnanomolar range

Other lines, results leading:

solubility kinetic [1]: 1.9 µM | EC50 (human NOD2; [2]): 105 ± 2.8 nM | EC50 (human TLR7): 98.6 ± 1.1 nM
Compound: CCCCOc1nc(N)c2nc(O)n(Cc3ccc(C(=O)NCCCCCC(=O)Oc4ccc(/C=C/C(=O)NCC(=O)N[C@H](C(=O)N[C@H](CCC(=O)OCC)C(=O)OCC)C(C)C)cc4OC)cc3)c2n1 [compound 1]

solubility kinetic [1]: 3.67 µM | EC50 (human NOD2; [2]): > 10000 nM | EC50 (human TLR7): 21.4 ± 1 nM
Compound: CCCCOc1nc(N)c2nc(O)n(Cc3ccc(C(=O)NCCOCCNC(=O)CC[C@@H](NC(=O)[C@@H](NC(=O)CNC(=O)/C=C/c4ccc(O)c(OC)c4)C(C)C)C(=O)OCC)cc3)c2n1 [compound 2]

solubility kinetic [1]: 483 µM | EC50 (human TLR7): 226 ± 14.5 nM
Compound: CCCCOc1nc(N)c2nc(O)n(Cc3ccc(C(=O)O)cc3)c2n1 [compound 4, reference compound]

solubility kinetic [1]: 415 µM
Compound: CCOC(=O)CCC(NC(=O)C(NC(=O)CNC(=O)C=Cc1ccc(O)c(OC)c1)C(C)C)C(=O)OCC (stereo not drawn) [compound 5]

solubility kinetic [1]: 337 µM | EC50 (human TLR8): 5900 ± 1790 nM | EC50 (human TLR7): 1820 ± 97 nM
Compound: CCOCc1nc2c(N)nc3ccccc3c2n1CC(C)(C)N [compound 7, reference compound]
